Values belong to the molecule of their own block, whether it stands above or below them. Ends that are not written are not given here.
Key:
full-length Beclin1 = target: T1, full-length Beclin1 (Homo sapiens, UniProt Q14457); test: SPR affinity of biotinylated D3S2 peptide for Beclin1; format: binding; settings: SPR Biacore 3000, 25 °C, c-terminal biotinylated D3S2 on SA chip, Beclin1 10 to 270 nM, Langmuir 1:1 fit, unit inferred
T1 construct: His tag (pQTEV vector, TEV site) (cleaved yes); made in house; host or cells: Escherichia coli BL21 (DE3), by analogy with the DIRAS2/3 chimera
T1 sequence (Q14457 whole entry): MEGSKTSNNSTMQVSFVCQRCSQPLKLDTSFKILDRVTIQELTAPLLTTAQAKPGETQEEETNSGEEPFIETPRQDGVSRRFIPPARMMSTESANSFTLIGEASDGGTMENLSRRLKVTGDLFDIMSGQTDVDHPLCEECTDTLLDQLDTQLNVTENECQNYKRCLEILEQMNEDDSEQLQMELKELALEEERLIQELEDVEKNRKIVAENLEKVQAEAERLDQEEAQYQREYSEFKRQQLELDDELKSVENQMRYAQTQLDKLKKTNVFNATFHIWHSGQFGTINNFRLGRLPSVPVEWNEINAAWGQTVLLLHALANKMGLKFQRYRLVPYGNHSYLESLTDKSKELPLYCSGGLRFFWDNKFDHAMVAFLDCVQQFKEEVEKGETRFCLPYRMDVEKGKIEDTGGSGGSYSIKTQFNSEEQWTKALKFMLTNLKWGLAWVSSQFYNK
Description: A DIRAS2/3 chimera construct was generated by replacing the amino acid residues 92–108 of DIRAS3 with 62–78 amino acid residues of DIRAS2. The DIRAS2/3 chimera construct was cloned into pQTEV vector using ligation-independent cloning and transformed into BL21 (DE3) Escherichia coli cells. Cells carrying the DIRAS2/3 chimera constructs were grown at 37 °C until the OD at 600 nm (OD600) reached to 0.6 and protein expression was induced with 0.5 mM isopropyl β-D-1-thiogalactopyranoside. Cultures were grown for an additional 12 h at 18 °C and harvested by centrifugation. Cells were resuspended in lysis buffer containing 50 mM Tris (pH 7.5), 150 mM sodium chloride, 10 mM magnesium chloride, 10 mM Imidazole, 5% glycerol and 1 mM β-mercaptoethanol and lysed using a cell disrupter (Constant Systems, Northamptonshire, UK). The lysate was cleared by centrifugation at 35,000 × g for 2 h at 4 °C. Cleared lysate was passed through a 0.22-μm filter. […]
SPR experiments were performed using a Biacore 3000 optical biosensor (GE Healthcare/Biacore AB) at 25 °C. […] Reference and buffer corrected SPR response was collected and the data was analyzed using Biacore evaluation software. The kinetic parameters and KD value were determined by fitting the sensorgram to a Langmuir 1:1 binding model (BIAevaluation version 4.1.1, GE Healthcare/Biacore AB, Marlborough, MA, USA).

[1] = target: T2, Beclin1 recombinant protein (UniProt Q14457 1-450); test: peptide or protein array; 15mer peptide array of DIRAS3 residues 1-229 on membrane, overlaid with recombinant Beclin1 at 1 µg/mL in 1% BSA/PBS, 2 h at room temperature; detected with primary and secondary antibody, HRP; settings: both partners purified
T2 construct: Beclin1 (BECN1); called full-length Beclin1 in the SPR experiment; The construct is not described beyond 'produced in a similar fashion'; For the chimera the His tag was cleaved with TEV protease; whether this also holds for Beclin1 is surmised; also called BECN1; full-length Beclin1; source: recombinant
T2 sequence (Q14457 whole entry, the tested form may be a part): as the sequence (Q14457 whole entry) above

kon (full-length Beclin1; read-out: association rate constant (ka)): 62200 M⁻¹ s⁻¹
koff (full-length Beclin1; read-out: dissociation rate constant (kd)): 0.000125 s⁻¹
Molecule: SKSGDGNRALQRHVIAR [D3S2]

binding result [1]: binds
B1: DIRAS3 N-terminus peptides on the DIRAS3 peptide array (residues 15-33) (peptide, UniProt O95661 15-33, looked up)
peptide: KRLRLLPALLILRAFKPHR
notes: DIRAS3, residues 15-33 (N-terminus), a stretch covered by overlapping 15mer peptides of an array covering residues 1-229; The stretch is longer than one 15mer, so several overlapping array spots are meant; also called N-terminus of DIRAS3 (residues 15-33); source: synthetic peptide, SPOT synthesis on membrane (MultiPep RS robot)

binding result [1]: binds
B2: DIRAS3 switch II region peptide on the DIRAS3 peptide array (residues 93-107) (peptide, UniProt O95661 93-107, looked up)
peptide: KSGDGNRALQRHVIA
notes: source: synthetic peptide, SPOT synthesis on membrane (MultiPep RS robot)

From paper PMC6521623, “DIRAS3-Derived Peptide Inhibits Autophagy in Ovarian Cancer Cells by Binding to Beclin1” (Cancers, 2019)
